Measured values published in the NIST ThermoML archive (doi:10.1021/acs.jced.7b01006).
± gives the expanded uncertainty stated by the source.

Assay: xn = mol fraction of the nth substance listed
Conditions: 100 kPa, Liquid; for electrical conductivity: Alternating current cell with electrodes; for viscosity: Falling or rolling sphere viscometry; for mass density: Vibrating tube method

CCCCn1cc[n+](C)c1C.N#C[S-] [1-butyl-2,3-dimethylimidazolium thiocyanate] + CC#N
Conditions | electrical conductivity [S/m] | mass density [kg/m3] | viscosity [mPa·s]
308.15 K, x1 = 0.1001 | 5.92 ± 0.59 | 873.64 ± 2 | 4.393 ± 0.061
308.15 K, x1 = 0.2004 | 5.36 ± 0.54 | 938.14 ± 2 | 9.306 ± 0.13
308.15 K, x1 = 0.2999 | 4.79 ± 0.48 | 982.11 ± 2.1 | 16.16 ± 0.24
308.15 K, x1 = 0.4003 | 2.34 ± 0.23 | 1015.92 ± 2.1 | 24.59 ± 0.38
308.15 K, x1 = 0.5001 | 1.56 ± 0.16 | 1028.06 ± 2.2 | 34.95 ± 0.56
308.15 K, x1 = 0.5999 | 1.26 ± 0.13 | 1040.79 ± 2.2 | 47.89 ± 0.79
308.15 K, x1 = 0.6999 | 0.96 ± 0.096 | 1052.69 ± 2.4 | 62.82 ± 1.1
308.15 K, x1 = 0.8002 | 0.853 ± 0.085 | 1059.56 ± 2.5 | 78.98 ± 1.7
308.15 K, x1 = 0.9002 | 0.61 ± 0.061 | 1066.57 ± 2.6 | 97.33 ± 2.6
308.15 K, x1 = 1 | 0.386 ± 0.039 | 1072.16 ± 2.8 | 118.9 ± 3.9
313.15 K, x1 = 0.1001 | 6.23 ± 0.62 | 869.75 ± 2 | 3.257 ± 0.045
313.15 K, x1 = 0.2004 | 5.7 ± 0.57 | 934.72 ± 2 | 6.633 ± 0.094
313.15 K, x1 = 0.2999 | 5.15 ± 0.52 | 978.72 ± 2.1 | 11.34 ± 0.17
313.15 K, x1 = 0.4003 | 2.67 ± 0.27 | 1013.21 ± 2.1 | 17.39 ± 0.27
313.15 K, x1 = 0.5001 | 1.81 ± 0.18 | 1025.43 ± 2.2 | 25.45 ± 0.4
313.15 K, x1 = 0.5999 | 1.48 ± 0.15 | 1038.3 ± 2.2 | 35.42 ± 0.59
313.15 K, x1 = 0.6999 | 1.16 ± 0.12 | 1050.1 ± 2.4 | 46.81 ± 0.8
313.15 K, x1 = 0.8002 | 1.03 ± 0.1 | 1057.26 ± 2.5 | 59.49 ± 1
313.15 K, x1 = 0.9002 | 0.749 ± 0.075 | 1064.3 ± 2.6 | 73.79 ± 1.6
313.15 K, x1 = 1 | 0.496 ± 0.05 | 1069.15 ± 2.8 | 90.46 ± 2.3
318.15 K, x1 = 0.1001 | 6.53 ± 0.65 | 865.95 ± 2 | 2.458 ± 0.034
318.15 K, x1 = 0.2004 | 6.03 ± 0.6 | 931.41 ± 2 | 4.722 ± 0.067
318.15 K, x1 = 0.2999 | 5.52 ± 0.55 | 975.35 ± 2.1 | 8.162 ± 0.12
318.15 K, x1 = 0.4003 | 3.03 ± 0.3 | 1010.57 ± 2.1 | 12.95 ± 0.2
318.15 K, x1 = 0.5001 | 2.07 ± 0.21 | 1022.69 ± 2.2 | 18.62 ± 0.3
318.15 K, x1 = 0.5999 | 1.73 ± 0.17 | 1035.83 ± 2.2 | 26.33 ± 0.43
318.15 K, x1 = 0.6999 | 1.38 ± 0.14 | 1047.6 ± 2.3 | 35.55 ± 0.61
318.15 K, x1 = 0.8002 | 1.23 ± 0.12 | 1055.02 ± 2.5 | 46.09 ± 0.82
318.15 K, x1 = 0.9002 | 0.913 ± 0.091 | 1061.87 ± 2.6 | 57.94 ± 1
318.15 K, x1 = 1 | 0.627 ± 0.063 | 1066.16 ± 2.8 | 72.04 ± 1.5
323.15 K, x1 = 0.1001 | 6.83 ± 0.68 | 862.09 ± 2 | 1.882 ± 0.026
323.15 K, x1 = 0.2004 | 6.37 ± 0.64 | 927.98 ± 2 | 3.578 ± 0.051
323.15 K, x1 = 0.2999 | 5.89 ± 0.59 | 972.17 ± 2.1 | 5.904 ± 0.087
323.15 K, x1 = 0.4003 | 3.4 ± 0.34 | 1007.9 ± 2.1 | 9.491 ± 0.14
323.15 K, x1 = 0.5001 | 2.37 ± 0.24 | 1020.14 ± 2.1 | 13.67 ± 0.22
323.15 K, x1 = 0.5999 | 2.01 ± 0.2 | 1033.37 ± 2.2 | 19.96 ± 0.33
323.15 K, x1 = 0.6999 | 1.63 ± 0.16 | 1045.21 ± 2.3 | 27.68 ± 0.48
323.15 K, x1 = 0.8002 | 1.46 ± 0.15 | 1052.82 ± 2.5 | 36.89 ± 0.66
323.15 K, x1 = 0.9002 | 1.1 ± 0.11 | 1059.62 ± 2.6 | 46.83 ± 0.87
323.15 K, x1 = 1 | 0.774 ± 0.077 | 1063.2 ± 2.8 | 57.11 ± 1.1
